This passage reports EC50 and EC50 not determined results from publication PMC9775371, “Structure-Based Virtual Screening and Functional Validation of Potential Hit Molecules Targeting the SARS-CoV-2 Main Protease” (Biomolecules, 2022).

The target of assay [1] is T1, SARS-CoV-2 M^pro (main protease, 3CL^pro) (Severe acute respiratory syndrome coronavirus 2, UniProt P0DTD1).
T1 construct: gene rep
Description: BRET-based sensor proteolytic cleavage assay. The format is biochemical. The conditions noted are these: read-out: Determined EC50. The source says:
BRET-based sensor proteolytic cleavage assay on SARS-CoV-2 M^pro (main protease, 3CL^pro)
In general terms: Bioluminescence resonance energy transfer reports proximity on the nanometre scale.

In assay [2] the target is T1, SARS-CoV-2 M^pro (main protease, 3CL^pro). Description: BRET-based sensor proteolytic cleavage assay. The conditions noted are these: 2 μM purified M^pro preincubated with compound 1 h at 37 °C; TBS, 1 M sodium citrate, 1 mM EDTA, 2 mM DTT; mNG-NLuc sensor substrate in HEK 293T lysate; read at 30 min. The format is biochemical.

Turning to `CCCCc1nc(Cl)c(CO)n1Cc1ccc(-c2ccccc2-c2nn[nH]n2)cc1` [LT, Losartan], the EC50 in assay [1] was 260 ± 88.6 µM. Turning to `CCCc1nc2c(C)cc(-c3nc4ccccc4n3C)cc2n1Cc1ccc(-c2ccccc2C(=O)O)cc1` [TM, Telmisartan], the EC50 not determined result in assay [2] is reported as “Telmisartan completely failed to inhibit M^pro”.
